Earlier results in patent US11969522B2, “Use of immune modulators to improve nerve regeneration” (The Board of Regents of the University of Texas System, priority 2019, dated 2024).

What was measured:
hematopoietic stem cells = conditions: animal and human studies
CXCR4 = conditions: chronic exposure, rhesus macaques

## c1cc(CN2CCCNCCNCCCNCC2)ccc1CN1CCCNCCNCCCNCC1 [Plerixafor]
Hematopoietic stem cells
  hematopoietic stem cell mobilization: very efficient inducer of hematopoietic stem cell mobilization

## CCCCCc1cc(O)c2c(c1)OC(C)(C)[C@@H]1CCC(C)=C[C@@H]21 [THC]
CXCR4
  T lymphocyte CXCR4 expression on both CD4+ and CD8+ T lymphocytes: increase
